Results on eleven compounds are retold here after PubChem BioAssay (NCI).

Each structure is given as a SMILES string.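 These data come from cells grown in 96-well plates and exposed to compound for 48 hours at five concentrations. TGI: concentration producing complete growth inhibition.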 Where a SMILES comes first, the peptide text is derived from it.

Test systems include U251 CNS; A549 NSCLC; SNB-19 CNS; SK-MEL-28 melanoma; NCI-H23 lung; MOLT-4 leukemia; MDA-MB-231 breast; HOP-92 NSCLC; MCF7 breast; SF-268 CNS; SF-539 CNS; SK-MEL-2 melanoma; SW-620 colon; UACC-257 melanoma; HOP-62 NSCLC; UO-31 renal; CCRF-CEM leukemia; CAKI-1 renal; OVCAR-5 ovarian.
Holding throughout (test): NCI-60 cell line screen, 48 h

Regarding `CN(C)C1(N(C)C)Oc2c(c(=O)n(C)c(=O)n2C)C(c2ccccc2Br)C1(F)F` (configuration not stated), the TGI in the assay with U251 CNS, in the assay with A549 NSCLC, in the assay with SNB-19 CNS, in the assay on SK-MEL-28 melanoma, in the assay with NCI-H23 lung and in the assay on MOLT-4 leukemia was more than 100 µM each time. For the same compound, the TGI in the assay on MDA-MB-231 breast, in the assay with HOP-92 NSCLC, in the assay with MCF7 breast, in the assay on SF-268 CNS, with SF-539 CNS and in the assay on SK-MEL-2 melanoma was more than 100 µM each time. For the same compound, the TGI in the assay with SW-620 colon, with UACC-257 melanoma, in the assay with HOP-62 NSCLC, in the assay with UO-31 renal, with CCRF-CEM leukemia and with CAKI-1 renal was more than 100 µM throughout. Also, the TGI in the assay with OVCAR-5 ovarian was more than 100 µM.
On to `O=c1c2cc(-c3ccccc3)cnc2sn1-c1ccc(Oc2ccccc2)cc1`, for which the TGI in the assay on U251 CNS was 78.1 µM; in the assay with A549 NSCLC, 53.2 µM; in the assay with SNB-19 CNS it was 54.7 µM; in the assay on SK-MEL-28 melanoma, more than 100 µM; with NCI-H23 lung, more than 100 µM; in the assay on MOLT-4 leukemia, more than 100 µM. The TGI is 34.9 µM in the assay on MDA-MB-231 breast; more than 100 µM in the assay with HOP-92 NSCLC; more than 100 µM in the assay on MCF7 breast; more than 100 µM with SF-268 CNS; more than 100 µM in the assay with SF-539 CNS; more than 100 µM in the assay with SK-MEL-2 melanoma. The TGI is more than 100 µM with SW-620 colon; more than 100 µM with UACC-257 melanoma; 56.8 µM in the assay with HOP-62 NSCLC; more than 100 µM in the assay on UO-31 renal; 82.9 µM with CCRF-CEM leukemia; more than 100 µM with CAKI-1 renal. This compound showed a TGI in the assay on OVCAR-5 ovarian of more than 100 µM.
On to `C/C(=N/c1[nH]c(=O)cc2c1C(=O)CC2)N(C)C`, for which the TGI in the assay on U251 CNS, in the assay on A549 NSCLC, with SNB-19 CNS, in the assay on SK-MEL-28 melanoma, in the assay with NCI-H23 lung and in the assay on MOLT-4 leukemia was more than 200 µM each time. The TGI in the assay with MDA-MB-231 breast, in the assay on HOP-92 NSCLC, in the assay with MCF7 breast, in the assay with SF-268 CNS, with SF-539 CNS and in the assay with SK-MEL-2 melanoma was more than 200 µM each time. Moreover, the TGI with SW-620 colon, in the assay with UACC-257 melanoma, in the assay with HOP-62 NSCLC, in the assay with UO-31 renal, with CCRF-CEM leukemia and with CAKI-1 renal was more than 200 µM throughout. Moreover, the TGI in the assay with OVCAR-5 ovarian was more than 200 µM.
With `CSc1nc2c(c(=O)[nH]1)N=C(c1ccc(Cl)cc1)CC(c1ccccc1)N2` (configuration not stated), the TGI stood at 39.3 µM in the assay with U251 CNS; 26.4 µM in the assay with A549 NSCLC; 29.9 µM in the assay on SNB-19 CNS; 32.4 µM with SK-MEL-28 melanoma; 30 µM with NCI-H23 lung; 61.8 µM in the assay with MOLT-4 leukemia. Besides, the TGI in the assay on MDA-MB-231 breast worked out at 30.8 µM; in the assay on HOP-92 NSCLC it was 38.7 µM; with MCF7 breast, 33.2 µM; in the assay on SF-539 CNS, 33.3 µM; in the assay on SK-MEL-2 melanoma, 31.7 µM; in the assay on SW-620 colon, 39.1 µM. The TGI came out at 34.3 µM in the assay on UACC-257 melanoma; 31.7 µM with HOP-62 NSCLC; 26.8 µM in the assay on UO-31 renal; 37.4 µM in the assay with CCRF-CEM leukemia; 34.2 µM in the assay with CAKI-1 renal; 34.2 µM in the assay with OVCAR-5 ovarian.
`CC1=NN(c2cccc(Cl)c2)C(=N/c2nc3ccccc3s2)/C1=C\c1cccs1`: the TGI in the assay with U251 CNS is 60.2 µM; with SK-MEL-28 melanoma, more than 100 µM; in the assay on NCI-H23 lung it was 61.8 µM; with MOLT-4 leukemia it was 95.2 µM; in the assay on MDA-MB-231 breast, more than 100 µM; in the assay on HOP-92 NSCLC it was more than 100 µM. In addition, the TGI was more than 100 µM in the assay on MCF7 breast; more than 100 µM in the assay with SF-268 CNS; more than 100 µM in the assay with SF-539 CNS; 65.4 µM in the assay with SK-MEL-2 melanoma; more than 100 µM with SW-620 colon; more than 100 µM with UACC-257 melanoma. Besides, the TGI was more than 100 µM in the assay on HOP-62 NSCLC; more than 100 µM with UO-31 renal; 47.1 µM with CCRF-CEM leukemia; more than 100 µM in the assay on CAKI-1 renal; more than 100 µM in the assay on OVCAR-5 ovarian.
In the case of `CN(C)CCNC1=CC(=O)c2nc3ccccc3c3ccnc1c23`, the TGI amounted to 25.5 µM with U251 CNS; 26.3 µM in the assay with A549 NSCLC; 29.6 µM in the assay with SNB-19 CNS; 23.5 µM in the assay with SK-MEL-28 melanoma; 18.9 µM in the assay with NCI-H23 lung; 13.6 µM in the assay with MOLT-4 leukemia. The TGI in the assay with MDA-MB-231 breast is 16 µM; with HOP-92 NSCLC it was 60.9 µM; in the assay with MCF7 breast it was 16.3 µM; in the assay with SF-268 CNS, 21.5 µM; in the assay with SF-539 CNS, 15.5 µM; with SK-MEL-2 melanoma, 20.7 µM. The TGI in the assay with SW-620 colon came out at 18 µM; in the assay with UACC-257 melanoma, 22.6 µM; in the assay with HOP-62 NSCLC, 25.6 µM; with UO-31 renal it was 23.8 µM; in the assay with CCRF-CEM leukemia it was 21.3 µM; in the assay on CAKI-1 renal, 18.9 µM. The compound also gave a TGI with OVCAR-5 ovarian of 34.1 µM.
On to `COc1cc(C2S/C(=C/c3ccccc3)C(=O)N2c2cc(Cl)c(Cl)cc2Cl)cc(OC)c1OC` (configuration not stated), for which the TGI was more than 100 µM in the assay with U251 CNS; more than 100 µM in the assay with A549 NSCLC; more than 100 µM in the assay on SNB-19 CNS; more than 100 µM in the assay with SK-MEL-28 melanoma; more than 100 µM in the assay with NCI-H23 lung; more than 72.4 µM in the assay with MOLT-4 leukemia. Further, the TGI in the assay on MDA-MB-231 breast is more than 100 µM; in the assay on HOP-92 NSCLC it was more than 74.6 µM; in the assay on MCF7 breast it was more than 100 µM; in the assay with SF-268 CNS, more than 100 µM; in the assay on SF-539 CNS it was more than 100 µM; in the assay on SK-MEL-2 melanoma it was more than 100 µM. Further, the TGI with SW-620 colon is more than 100 µM; in the assay on UACC-257 melanoma, more than 100 µM; in the assay with HOP-62 NSCLC, more than 100 µM; with UO-31 renal, more than 100 µM; with CCRF-CEM leukemia, more than 88.9 µM; in the assay with CAKI-1 renal it was more than 87.1 µM. For the same compound, the TGI in the assay on OVCAR-5 ovarian is more than 100 µM.
Consider `CCOC1(OCC)N=C(N)C2(C#N)C3(C(=O)N(C(C)C)N=C3C)C12C#N` (configuration not stated), for which the TGI in the assay on U251 CNS, with A549 NSCLC, with SNB-19 CNS, with SK-MEL-28 melanoma, in the assay on NCI-H23 lung and with MOLT-4 leukemia was more than 100 µM in each case. Also, the TGI with MDA-MB-231 breast, with HOP-92 NSCLC, in the assay on MCF7 breast, in the assay on SF-268 CNS, with SF-539 CNS and in the assay on SK-MEL-2 melanoma was more than 100 µM in each case. Moreover, the TGI with SW-620 colon, with UACC-257 melanoma, with HOP-62 NSCLC, in the assay with UO-31 renal, in the assay on CCRF-CEM leukemia and in the assay on CAKI-1 renal was more than 100 µM throughout. This compound also displayed a TGI in the assay with OVCAR-5 ovarian of more than 100 µM.
`CNC(=O)CNC(=O)C(NC(=O)CNC(=O)C1CCCN1C(=O)C(C)NC(=O)C(NC(C)=O)C(C)C)C(C)C` (configuration not stated) (Ac-VAPGVG-NHMe; configuration not given here): the TGI with U251 CNS, in the assay with SNB-19 CNS, with SK-MEL-28 melanoma, in the assay on NCI-H23 lung, in the assay with MOLT-4 leukemia and with MDA-MB-231 breast was more than 100 µM throughout. Further, the TGI in the assay on HOP-92 NSCLC, in the assay on MCF7 breast, with SF-268 CNS, with SF-539 CNS, with SK-MEL-2 melanoma and in the assay with SW-620 colon was more than 100 µM throughout. In addition, the TGI in the assay on UACC-257 melanoma, in the assay on HOP-62 NSCLC, in the assay with UO-31 renal, in the assay on CCRF-CEM leukemia, with CAKI-1 renal and in the assay with OVCAR-5 ovarian was more than 100 µM in each case.
`O=C1C2=Cc3ccccc3OC2(O)Oc2ccc(O)cc21` (configuration not stated): the TGI in the assay with U251 CNS, in the assay with A549 NSCLC, with SK-MEL-28 melanoma, in the assay on NCI-H23 lung, in the assay on MOLT-4 leukemia and with MDA-MB-231 breast was more than 100 µM throughout. In addition, the TGI with HOP-92 NSCLC, in the assay with MCF7 breast, in the assay on SF-268 CNS, with SF-539 CNS, in the assay with SK-MEL-2 melanoma and in the assay on SW-620 colon was more than 100 µM in each case. The TGI was more than 100 µM in the assay on UACC-257 melanoma; more than 100 µM in the assay with HOP-62 NSCLC; 44.4 µM with CCRF-CEM leukemia; more than 100 µM in the assay with CAKI-1 renal; more than 100 µM with OVCAR-5 ovarian.
For `Clc1ccc(C2=C(c3ccccc3)C(c3ccc(Cl)cc3)N3C(=N[C@H]4CCCC[C@@H]43)N2)cc1` (some centres not stated), the TGI amounted to 23.3 µM in the assay with U251 CNS; 24.4 µM in the assay with A549 NSCLC; 27.6 µM in the assay on SNB-19 CNS; 26.5 µM with SK-MEL-28 melanoma; 28 µM in the assay on NCI-H23 lung; 22.7 µM with MOLT-4 leukemia. Besides, the TGI in the assay with MDA-MB-231 breast came to 29.8 µM; in the assay on HOP-92 NSCLC, 21.4 µM; in the assay on MCF7 breast, 21.2 µM; in the assay with SF-268 CNS, 44.8 µM; in the assay on SF-539 CNS, 29.7 µM; in the assay with SK-MEL-2 melanoma it was 29.9 µM. For the same compound, the TGI with SW-620 colon stood at 20.6 µM; in the assay on UACC-257 melanoma it was 32.2 µM; in the assay with UO-31 renal it was 26.4 µM; with CCRF-CEM leukemia, 26 µM; in the assay on CAKI-1 renal, 30.1 µM; in the assay with OVCAR-5 ovarian it was 29.8 µM.
